Experimental data published in PubChem BioAssay AID2060502 (Molecular Pharmacology Branch, DTP, NCI, 2025).

System: 885724-159-R-J1-PDC complex spheroid viability
Test: Anticancer human tumor 885724-159-R-J1-PDC patient-derived pancreatic adenocarcinoma cell line growth inhibition [GQUAD]
Conditions: for IC50: curve of first compound; for viability, T/C: stronger effect = lower value
Summary of the method: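 Multi-cell-type spheroids of tumor cells with HUVEC and mesenchymal stem cells, treated with drug combinations. Concentrations descend in half-log steps from near clinical Cmax, or from 10 microM where Cmax is unknown; viability read-out.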

[1] = second compound 0.0316 µM, first compound 0.0316 µM
[2] = second compound 0.0316 µM, first compound 0.1 µM
[3] = second compound 0.0316 µM, first compound 0.316 µM
[4] = second compound 0.0316 µM, first compound 1 µM
[5] = second compound 0.0316 µM, first compound 3.16 µM
[6] = second compound 0.0316 µM, first compound 10 µM
[7] = second compound 0.1 µM, first compound 0.0316 µM
[8] = second compound 0.1 µM, first compound 0.1 µM
[9] = second compound 0.1 µM, first compound 0.316 µM
[10] = second compound 0.1 µM, first compound 1 µM
[11] = second compound 0.1 µM, first compound 3.16 µM
[12] = second compound 0.1 µM, first compound 10 µM
[13] = second compound 0.316 µM, first compound 0.0316 µM
[14] = second compound 0.316 µM, first compound 0.1 µM
[15] = second compound 0.316 µM, first compound 0.316 µM
[16] = second compound 0.316 µM, first compound 1 µM
[17] = second compound 0.316 µM, first compound 3.16 µM
[18] = second compound 0.316 µM, first compound 10 µM
[19] = second compound 1 µM, first compound 0.0316 µM
[20] = second compound 1 µM, first compound 0.1 µM
[21] = second compound 1 µM, first compound 0.316 µM
[22] = second compound 1 µM, first compound 1 µM
[23] = second compound 1 µM, first compound 3.16 µM
[24] = second compound 1 µM, first compound 10 µM
[25] = second compound 3.16 µM, first compound 0.0316 µM
[26] = second compound 3.16 µM, first compound 0.1 µM
[27] = second compound 3.16 µM, first compound 0.316 µM
[28] = second compound 3.16 µM, first compound 1 µM
[29] = second compound 3.16 µM, first compound 3.16 µM
[30] = second compound 3.16 µM, first compound 10 µM
[31] = second compound 10 µM, first compound 0.0316 µM
[32] = second compound 10 µM, first compound 0.1 µM
[33] = second compound 10 µM, first compound 0.316 µM
[34] = second compound 10 µM, first compound 1 µM
[35] = second compound 10 µM, first compound 3.16 µM
[36] = second compound 10 µM, first compound 10 µM
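Note: spheroids exposed to agents for seven days before readout.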
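Throughout, for viability, T/C: percent of vehicle control viability where 100% = DMSO wells.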

## C=CCn1c(=O)c2cnc(Nc3ccc(N4CCN(C)CC4)cc3)nc2n1-c1cccc(C(C)(C)O)n1 + Cc1cnc(CNC(=O)c2c(=O)c3ccc(N4CCCN(C)CC4)nc3n3c2sc2ccccc23)cn1
Second compound 0.0316 µM
  IC50: > 10 µM
Second compound 0.1 µM
  IC50: > 10 µM
Second compound 0.316 µM
  IC50: > 10 µM
Second compound 1 µM
  IC50: > 10 µM
Second compound 3.16 µM
  IC50: > 10 µM
Second compound 10 µM
  IC50: > 10 µM
[1]
  viability, T/C: 105%
[2]
  viability, T/C: 106%
[3]
  viability, T/C: 100%
[4]
  viability, T/C: 97.1%
[5]
  viability, T/C: 78.4%
[6]
  viability, T/C: 91.5%
[7]
  viability, T/C: 109%
[8]
  viability, T/C: 132%
[9]
  viability, T/C: 99.7%
[10]
  viability, T/C: 93.9%
[11]
  viability, T/C: 85.9%
[12]
  viability, T/C: 83.3%
[13]
  viability, T/C: 106%
[14]
  viability, T/C: 102%
[15]
  viability, T/C: 100%
[16]
  viability, T/C: 91.1%
[17]
  viability, T/C: 89.9%
[18]
  viability, T/C: 90%
[19]
  viability, T/C: 100%
[20]
  viability, T/C: 78.2%
[21]
  viability, T/C: 82.8%
[22]
  viability, T/C: 75.3%
[23]
  viability, T/C: 79.2%
[24]
  viability, T/C: 96.8%
[25]
  viability, T/C: 73.1%
[26]
  viability, T/C: 65.4%
[27]
  viability, T/C: 69.8%
[28]
  viability, T/C: 67.8%
[29]
  viability, T/C: 71.5%
[30]
  viability, T/C: 69.2%
[31]
  viability, T/C: 58.9%
[32]
  viability, T/C: 70.4%
[33]
  viability, T/C: 56.4%
[34]
  viability, T/C: 58.3%
[35]
  viability, T/C: 69.8%
[36]
  viability, T/C: 62%

## CC(=O)O[C@H]1C(=O)[C@@]2(C)[C@H]([C@H](OC(=O)c3ccccc3)[C@]3(O)C[C@H](OC(=O)[C@H](O)[C@@H](NC(=O)c4ccccc4)c4ccccc4)C(C)=C1C3(C)C)[C@]1(OC(C)=O)CO[C@@H]1C[C@@H]2O + Cc1[nH]c2ccc(F)cc2c1-c1nc2c3cccnc3c3ncccc3c2[nH]1
Second compound 0.0316 µM
  IC50: > 10 µM
Second compound 0.1 µM
  IC50: > 10 µM
Second compound 0.316 µM
  IC50: > 10 µM
Second compound 1 µM
  IC50: > 10 µM
Second compound 3.16 µM
  IC50: < 0.0316 µM
Second compound 10 µM
  IC50: > 10 µM
[1]
  viability, T/C: 102%
[2]
  viability, T/C: 76.5%
[3]
  viability, T/C: 85.7%
[4]
  viability, T/C: 91.4%
[5]
  viability, T/C: 81.6%
[6]
  viability, T/C: 83.3%
[7]
  viability, T/C: 112%
[8]
  viability, T/C: 83.2%
[9]
  viability, T/C: 78%
[10]
  viability, T/C: 84.8%
[11]
  viability, T/C: 86.5%
[12]
  viability, T/C: 87%
[13]
  viability, T/C: 87.8%
[14]
  viability, T/C: 77.8%
[15]
  viability, T/C: 82.8%
[16]
  viability, T/C: 79.6%
[17]
  viability, T/C: 80.8%
[18]
  viability, T/C: 80.2%
[19]
  viability, T/C: 69.5%
[20]
  viability, T/C: 54.7%
[21]
  viability, T/C: 61.8%
[22]
  viability, T/C: 51.1%
[23]
  viability, T/C: 78.6%
[24]
  viability, T/C: 55.5%
[25]
  viability, T/C: 16.7%
[26]
  viability, T/C: 6.91%
[27]
  viability, T/C: 7.17%
[28]
  viability, T/C: 8.73%
[29]
  viability, T/C: 10%
[30]
  viability, T/C: 5.61%
[31]
  viability, T/C: 56.7%
[32]
  viability, T/C: 53.2%
[33]
  viability, T/C: 54.5%
[34]
  viability, T/C: 55%
[35]
  viability, T/C: 68.5%
[36]
  viability, T/C: 59.2%

## O=C(NO)c1cnc(N2CCN(S(=O)(=O)c3ccc4ccccc4c3)CC2)nc1 + CN(C)c1ccc(Nc2c3ccc(NC(=O)CCN4CCCC4)cc3nc3cc(NC(=O)CCN4CCCC4)ccc23)cc1
Second compound 0.0316 µM
  IC50: 0.683 µM
Second compound 0.1 µM
  IC50: 0.702 µM
Second compound 0.316 µM
  IC50: 0.579 µM
Second compound 1 µM
  IC50: 0.5 µM
Second compound 3.16 µM
  IC50: 0.519 µM
Second compound 10 µM
  IC50: 0.218 µM
[1]
  viability, T/C: 91.8%
[2]
  viability, T/C: 117%
[3]
  viability, T/C: 78.7%
[4]
  viability, T/C: 35.9%
[5]
  viability, T/C: 0.8%
[6]
  viability, T/C: 0.93%
[7]
  viability, T/C: 106%
[8]
  viability, T/C: 100%
[9]
  viability, T/C: 86.5%
[10]
  viability, T/C: 34.5%
[11]
  viability, T/C: 0.82%
[12]
  viability, T/C: 0.44%
[13]
  viability, T/C: 83.7%
[14]
  viability, T/C: 91.2%
[15]
  viability, T/C: 75.6%
[16]
  viability, T/C: 26.5%
[17]
  viability, T/C: 1.07%
[18]
  viability, T/C: 1.4%
[19]
  viability, T/C: 80.4%
[20]
  viability, T/C: 68.9%
[21]
  viability, T/C: 64.2%
[22]
  viability, T/C: 29.9%
[23]
  viability, T/C: 1.26%
[24]
  viability, T/C: 0.73%
[25]
  viability, T/C: 71.7%
[26]
  viability, T/C: 64.6%
[27]
  viability, T/C: 76.8%
[28]
  viability, T/C: 22%
[29]
  viability, T/C: 1.42%
[30]
  viability, T/C: 0.69%
[31]
  viability, T/C: 61%
[32]
  viability, T/C: 59%
[33]
  viability, T/C: 43.7%
[34]
  viability, T/C: 26.7%
[35]
  viability, T/C: 1.36%
[36]
  viability, T/C: 2.05%

## O=C(NO)c1cnc(N2CCN(S(=O)(=O)c3ccc4ccccc4c3)CC2)nc1 + Cc1[nH]c2ccc(F)cc2c1-c1nc2c3cccnc3c3ncccc3c2[nH]1
Second compound 0.0316 µM
  IC50: 0.862 µM
Second compound 0.1 µM
  IC50: 0.841 µM
Second compound 0.316 µM
  IC50: 0.894 µM
Second compound 1 µM
  IC50: 0.706 µM
Second compound 3.16 µM
  IC50: < 0.0316 µM
Second compound 10 µM
  IC50: 0.802 µM
[1]
  viability, T/C: 101%
[2]
  viability, T/C: 96.9%
[3]
  viability, T/C: 108%
[4]
  viability, T/C: 42.3%
[5]
  viability, T/C: 2.03%
[6]
  viability, T/C: 0.22%
[7]
  viability, T/C: 101%
[8]
  viability, T/C: 106%
[9]
  viability, T/C: 82%
[10]
  viability, T/C: 47.1%
[11]
  viability, T/C: 2.38%
[12]
  viability, T/C: 0.21%
[13]
  viability, T/C: 90.7%
[14]
  viability, T/C: 83%
[15]
  viability, T/C: 95.6%
[16]
  viability, T/C: 45.7%
[17]
  viability, T/C: 3.31%
[18]
  viability, T/C: 0.18%
[19]
  viability, T/C: 69.2%
[20]
  viability, T/C: 55.7%
[21]
  viability, T/C: 94.9%
[22]
  viability, T/C: 39.9%
[23]
  viability, T/C: 2.39%
[24]
  viability, T/C: 0.24%
[25]
  viability, T/C: 14.8%
[26]
  viability, T/C: 18.3%
[27]
  viability, T/C: 31.6%
[28]
  viability, T/C: 22.1%
[29]
  viability, T/C: 1.99%
[30]
  viability, T/C: 0.22%
[31]
  viability, T/C: 66.2%
[32]
  viability, T/C: 65.6%
[33]
  viability, T/C: 74.6%
[34]
  viability, T/C: 45.5%
[35]
  viability, T/C: 3.66%
[36]
  viability, T/C: 0.26%
